Assays:
Oryctolagus cuniculus [1] = species: Oryctolagus cuniculus; assay: Antagonist activity against endothelin A/B2 receptor in New Zealand white rabbit basilar artery assessed as vasodilation by measuring effect on endothelin-1-induced constriction at 10 uM; format: tissue-based; parameters: scale not given: the % may be the effect or the level left
Oryctolagus cuniculus [2] = species: Oryctolagus cuniculus; assay: Antagonist activity against L-type calcium channel in New Zealand white rabbit basilar artery assessed as vasodilation by measuring effect on 50 mM K+-stimulated depolarization-induced constriction at 10 uM; format: tissue-based; parameters: scale not given: the % may be the effect or the level left
[3] = Antagonist activity against endothelin A/B2 receptor in New Zealand white rabbit basilar artery assessed as vasodilation by measuring effect on endothelin-1-induced constriction; format: tissue-based, Oryctolagus cuniculus
[4] = Antagonist activity against L-type calcium channel in New Zealand white rabbit basilar artery assessed as vasodilation by measuring effect on 50 mM K+-stimulated depolarization-induced constriction; format: tissue-based, Oryctolagus cuniculus

SMILES	Activity (Oryctolagus cuniculus [1])	EC50 [3]	EC50 [4]	Activity (Oryctolagus cuniculus [2])
COc1cc(/C=C/C(=O)c2cccc(NS(=O)(=O)c3cc(Cl)cc(Cl)c3)c2)ccc1O	55.9%			37.3%
CCCS(=O)(=O)Nc1cccc(C(=O)/C=C/c2ccc(O)c(OC)c2)c1	30.8%			42.3%
COc1cc(/C=C/C(=O)c2cccc(NS(=O)(=O)c3ccc(Cl)c(Cl)c3)c2)ccc1O	41.8%			30.2%
COc1cc(/C=C/C(=O)c2cccc(NS(=O)(=O)c3cccs3)c2)ccc1O	39.1%			32.4%
COc1cc(/C=C/C(=O)CC(=O)/C=C/c2ccc(O)c(OC)c2)ccc1O [CURCUMIN]	8.5%	48.5 µM	7.48 µM	58.4%
COc1cc(/C=C/C(=O)c2cccc(NS(=O)(=O)c3ccc(Cl)cc3Cl)c2)ccc1O	83.4%	8.8 µM		4.2%
CCS(=O)(=O)Nc1cccc(C(=O)/C=C/c2ccc(O)c(OC)c2)c1	19.7%			55.3%
COc1cc(/C=C/C(=O)c2cccc(NS(C)(=O)=O)c2)ccc1O	22.3%			4.2%
COc1cc(/C=C/C(=O)c2cccc(NS(=O)(=O)c3cc(Cl)ccc3Cl)c2)ccc1O	30.4%			53.4%
COc1cc(/C=C/C(=O)c2cccc(NS(=O)(=O)c3c(Cl)cccc3Cl)c2)ccc1O	99.8%	1.8 µM	2.78 µM	99.4%
COc1cc(/C=C/C(=O)c2cccc(NS(=O)(=O)C(C)C)c2)ccc1O	31.2%			20.5%
COc1cc(/C=C/C(=O)c2cccc(NS(=O)(=O)C(F)(F)F)c2)ccc1O	34.6%			10.7%

The next lines start with results.

Activity (Oryctolagus cuniculus [1])	EC50 [3]	EC50 [4]	SMILES	Activity (Oryctolagus cuniculus [2])
68.7%			COc1cc(/C=C/C(=O)c2cccc(NS(=O)(=O)c3ccc(C(C)=O)cc3)c2)ccc1O	67.9%
98.9%	3.9 µM		COc1cc(/C=C/C(=O)c2cccc(NS(=O)(=O)c3ccc([N+](=O)[O-])cc3)c2)ccc1O	70.7%
75.1%	6.4 µM		COc1cc(/C=C/C(=O)c2cccc(NS(=O)(=O)c3ccc(F)cc3)c2)ccc1O	71.8%
56.8%			COc1ccc(S(=O)(=O)Nc2cccc(C(=O)/C=C/c3ccc(O)c(OC)c3)c2)cc1	26.4%
40.2%			COc1cc(/C=C/C(=O)c2cccc(NS(=O)(=O)c3ccccc3)c2)ccc1O	50.4%
36.5%			COc1cc(/C=C/C(=O)c2cccc(NS(=O)(=O)c3cccc(C(F)(F)F)c3)c2)ccc1O	52.3%
78.3%	5.9 µM	5.58 µM	COc1cc(/C=C/C(=O)c2cccc(NS(=O)(=O)c3ccc(Cl)cc3)c2)ccc1O	93.4%
81.4%	6.1 µM		COc1cc(/C=C/C(=O)c2cccc(NS(=O)(=O)c3ccc(OC(F)(F)F)cc3)c2)ccc1O	76.7%
46.1%			COc1cc(/C=C/C(=O)c2cccc(NS(=O)(=O)c3ccc(C(F)(F)F)cc3)c2)ccc1O	65.8%
99.6%	2.7 µM	3.67 µM	COc1cc(/C=C/C(=O)c2cccc(NS(=O)(=O)c3ccc(C)cc3)c2)ccc1O	98.7%
